In data set [1] the test system is PANC-1 and Mia PaCa-2 cell lines. The data set can be described thus: Cell cycle analysis (PDAC). The data set is classed as cell-based, human. The procedure:
The cells were plated in 100-mm dishes at a concentration of 1-2×10^6 cells/dish in DMEM without serum. After serum starvation for 24 h, medium was replaced with complete culture medium containing tested compounds. For cell cycle analysis, the cells were trypsinized and fixed with 70% ethanol in −20° C. overnight. The fixed cells were incubated with 100 μg/mL of RNase A and 50 μg/mL propidium iodide for 30 min at room temperature. Stained cells were analyzed using Bio-Rad ZE5 and ModFit LT 5.0.9 software at Flow cytometry and cell sorting core at the University of Tennessee Health Science Center (UTHSC) and the proportion of G1, S, G2/M phases were determined.

The nature of data set [2]: Toxicity of 5m at higher dose in mice. The settings on record: 5 mg/kg. The data set is classed as in vivo.
The test system of a further data set is PANC-1-Luc xenografts. The data set can be described thus: PANC-1-Luc subcutaneous xenograft model. The data set is classed as in vivo, NSG mice. The method, then: (§1) All animal procedures were performed in accordance with the protocols approved by the Institutional Animal Care and Use Committee (IACUC) at UTHSC. Two pancreatic cancer cell lines, Mia PaCa-2-Luc and PANC-1-Luc, were used in this study. 50 μL of Mia PaCa-2-Luc (5×10^6 cells in HBSS) or PANC-1-Luc (3×10^6 cells in HBSS) cell suspension was mixed with same volume of Matrigel (1:1 mixture) right before use. Cell mixture was subcutaneously injected to the right flank of each NSG mice (male, 6-8 weeks). […] The control group received no treatment. Treatment started when the average tumor size reached 70-100 mm^3. […] Tumor volume and body weight were measured twice per week. Tumor volume was calculated by the equation: volume (mm^3)=0.5×(length×width^2). All animals were euthanized at the end of the study. Tumors were excised, recorded for ex-vivo weight and size, and imaged.

Another data set relates to 22RV1 xenografts. Nature of the data set: 22RV1 prostate cancer xenograft model. Format: in vivo, NSG mice. As to conditions: 1 mg/kg IV, 2 times/week. The method, then:
FIG. 19D: Similarly, for 22RV1 prostate cancer xenograft model, we inoculated 2.5×10^6 22RV1 cells subcutaneously into the right flank of each mouse. The cells were prepared in the mixture of FBS and phenol red-free DMEM medium and Matrigel (1:1 ratio). […] We measured tumor volume 2 times a week until reaching the study endpoint.

Data set [3] deals with T1, tubulin protein from bovine brain (Bos taurus, UniProt P81947+Q6B856).
T1 construct: tubulin protein from bovine brain origin; purchased Cytoskeleton, Denver, Colo; host or cells: bovine brain
T1 sequence (P81947 whole entry): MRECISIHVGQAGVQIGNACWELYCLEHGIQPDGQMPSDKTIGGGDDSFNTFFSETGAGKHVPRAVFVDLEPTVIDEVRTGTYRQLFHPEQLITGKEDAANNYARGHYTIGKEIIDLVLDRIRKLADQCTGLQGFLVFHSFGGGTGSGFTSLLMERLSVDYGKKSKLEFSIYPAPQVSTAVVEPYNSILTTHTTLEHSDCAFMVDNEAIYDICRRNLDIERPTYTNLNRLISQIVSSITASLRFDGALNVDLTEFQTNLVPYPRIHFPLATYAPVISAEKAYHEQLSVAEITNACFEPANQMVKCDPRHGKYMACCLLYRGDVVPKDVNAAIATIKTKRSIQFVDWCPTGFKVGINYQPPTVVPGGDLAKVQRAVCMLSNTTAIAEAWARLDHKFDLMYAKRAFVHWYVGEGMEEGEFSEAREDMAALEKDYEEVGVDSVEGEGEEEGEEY
T1 sequence (Q6B856 whole entry): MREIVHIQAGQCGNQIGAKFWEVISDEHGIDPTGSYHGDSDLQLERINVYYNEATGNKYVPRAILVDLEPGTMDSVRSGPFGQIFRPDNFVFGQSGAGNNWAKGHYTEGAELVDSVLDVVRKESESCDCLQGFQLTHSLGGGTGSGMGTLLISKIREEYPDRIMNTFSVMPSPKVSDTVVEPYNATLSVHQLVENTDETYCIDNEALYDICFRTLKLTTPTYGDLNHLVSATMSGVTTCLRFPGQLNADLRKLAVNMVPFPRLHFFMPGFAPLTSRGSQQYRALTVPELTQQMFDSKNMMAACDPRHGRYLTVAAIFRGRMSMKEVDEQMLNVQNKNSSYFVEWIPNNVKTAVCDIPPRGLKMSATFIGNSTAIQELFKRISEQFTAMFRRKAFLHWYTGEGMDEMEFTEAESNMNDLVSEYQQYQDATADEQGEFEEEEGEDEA
The data set can be described thus: Tubulin polymerization assay (FIG. 5A). The settings on record: 10 μM, cell-free. Format: biochemical. The procedure:
Tubulin polymerization reaction was initiated by adding 100 μL of tubulin protein from bovine brain origin (3 mg/ml, Cytoskeleton, Denver, Colo.) into 10 μM of test compounds in general tubulin buffer (80 mM PIPES, 2.0 mM MgCl2, 0.5 mM EGTA, and 1 mM GTP) according to the manufacturer protocol. The reaction kinetics were recorded in every thirty seconds for 1 h at 37° C. and a microplate reader equipped with absorbance settings at 340 nm wavelength was used for this purpose. The experiment was performed in duplicates.

A further data set deals with DU-145/VxR xenografts. The arrangement: species or system NSG mice. The settings on record: mouse, in vivo.
The test system of a further data set is A549/TxR. Nature of the data set: cells. The settings on record: Homo sapiens, read-out: IC50 ± SEM (nM) A549/TxR.
The test system of data set [4] is Mia PaCa-2-Luc xenografts. The data set is classed as in vivo, NSG mice. As to conditions: 2 mg/kg i.v., 1 dose/week, 42 days. The procedure:
as §1

The subject of data set [5] is A2780/TxR ovarian cancer xenografts. The data set can be described thus: Orthotopic A2780/TxR ovarian cancer xenograft model. As to conditions: 5m 1 mg/kg IV; Compound 17ya 20 mg/kg PO; 3 weeks.
A further data set is described as follows: in vitro. As to conditions: rat, liver microsomes.
For the next data set, the system named is Mia PaCa-2. The data set can be described thus: Cytotoxicity assay (MTS, 72 h). Format: cell-based. The settings on record: Homo sapiens, Table 6, read-out: IC50 (nM) Pancreatic cancer Mia PaCa-2.
The subject of a further data set is A375/TxR cells. Nature of the data set: Cell cycle analysis (PI, flow cytometry). Format: cell-based, human. The settings on record: 5v 1, 2, 5 nM, 24 h. In general terms: In flow cytometry, cells or beads pass a laser one at a time.
The next data set deals with DU-145. Nature of the data set: Cytotoxicity assay (MTS, 72 h). The data set is classed as cell-based. The settings on record: Homo sapiens, DU-145, read-out: IC50 ± SEM (nM) DU-145; Table 2.
The next data set has as its system DU-145/TxR. The data set can be described thus: Cytotoxicity assay (MTS, 72 h). The settings on record: Homo sapiens, DU-145, read-out: IC50 ± SEM (nM) DU-145/TxR; Table 2. The data set is classed as cell-based.
The subject of another data set is A375. Nature of the data set: Cytotoxicity assay (MTS, 72 h). As to conditions: Homo sapiens.
For another data set, the system named is PC3. The data set can be described thus: Cytotoxicity assay (MTS, 72 h). As to conditions: Homo sapiens, PC-3; Table 6; read-out: IC50 (nM) Prostate cancer PC3. Format: cell-based. The source says: Cytotoxicity Assay. […] Each experiment consisted of four replicates.

“Also recorded” adds a separate entry of the source. Where two headings read alike, the source gives them in different places.

As to `COc1ccc2c(c1)NC(=O)CN2c1nc(C)nc2c1CCC2` [Compound 5m, 7-methoxy-4-(2-methyl-6,7-dihydro-5H-cyclopenta[d]pyrimidin-4-yl)-3,4-dihydroquinoxalin-2(1H)-one], in data set [1], the “cell cycle arrest at G2/M phase” value is on record as “dose dependently increase the proportion of cells in G2/M phase”. For the same compound, the “toxicity at higher dose” value in data set [2] is recorded as “had toxicity”. For the same compound, the “xenograft tumor growth” value in the data set with PANC-1-Luc xenografts (1 mg/kg or 2 mg/kg i.v., 1 dose/week for 7 weeks) is “dose-dependent and significant inhibition of xenograft tumor growth; also recorded: dose-dependently inhibited xenograft tumor growth”. Also, the “body weight vs control” value in the data set on PANC-1-Luc xenografts (49 days, two doses) is on record as “no differences seen in body weight”. In addition, in the data set with 22RV1 xenografts, the “growth of 22RV1 xenografts” value was “remarkable in inhibiting the growth of 22RV1 xenografts”. Besides, the “effect on microtubule polymerization” value in data set [3] is “significantly inhibited microtubule polymerization”. In addition, the “endpoint average tumor volume” value in the data set on DU-145/VxR xenografts was around 80 mm^3. For the same compound, in the data set with A549/TxR, the IC50 worked out at 2.8 ± 1.1 nM. Further, the “reduction of tumor growth vs control” value in [4] is reported as 70-80%. Also, the “mice having visible tumor” value in data set [5] is listed as 1 of 5. The CLint scaled (usually the rate of metabolic loss divided by the concentration) at 1 μg/mL in the data set “in vitro” was found to be 5.21 L/h/kg.

For the compound `CCNc1nc2c(c(N3CC(=O)Nc4cc(OC)ccc43)n1)CCC2` [Compound 5v, 4-(2-(ethylamino)-6,7-dihydro-5H-cyclopenta[d]pyrimidin-4-yl)-7-methoxy-3,4-dihydroquinoxalin-2(1H)-one], the IC50 is 3.4 ± 0.4 nM in the data set on Mia PaCa-2; 1.8 ± 0.3 nM in the data set with DU-145; 1.9 ± 0.3 nM in the data set with DU-145/TxR; 0.7 ± 0.1 nM in the data set with A375 (A-375, read-out: IC50 (nM) Melanoma A375, Table 1); around 1.6 nM with A375 (A-375, read-out: IC50 (nM) Melanoma Cancer A375, Table 6); 0.4 ± 0.04 nM in the data set on A375 (A-375, read-out: IC50 ± SEM (nM) A375, Table 2). The IC50 in the data set with PC3 amounted to 1.7 ± 0.1 nM. Further, the “G2/M phase arrest” value in the data set on A375/TxR cells is given as “arrested in the G2/M phase to increase dramatically”.

For the origin of these results see patent US20230286995A1, “METABOLICALLY STABLE PYRIMIDINYL DIHYDROQUINOXALINONES AS TUBULIN POLYMERIZATION INHIBITORS” (UNIVERSITY OF TENNESSEE RESEARCH FOUNDATION, priority 2022, published 2023).
